Measurements: ChEMBL document CHEMBL3856190, “Novel spirothiazamenthane inhibitors of the influenza A M2 proton channel” (Eur J Med Chem, 2016)
The source made the active and inactive calls. The calls are words filed in the database; no cut-off is given here.

Key:
[1] = Cytotoxicity against yeast cells assessed as growth inhibition at 100 uM after 44 hrs by turbidometric assay; assay type: toxicity, cell-based; conditions: saccharomyces cerevisiae
[2] = Inhibition of Influenza A virus A/udorn/72(H3N2) wild type M2 proton channel expressed in yeast assessed as growth restoration measured after 44 hrs by turbidometric assay; design: species or system Influenza A virus (A/udorn/1972(H3N2))
[3] = tested on: MDCK; test: Antiviral activity against Influenza A virus A/Puerto Rico/8/34 expressing wild type M2 proton channel infected MDCK cells assessed as inhibition of viral replication at 20 to 100 uM measured after 10 hrs by miniplaque assay; assay type: functional, cell-based; conditions: Influenza A virus (A/Puerto Rico/8/1934(H1N1))
[4] = Cytotoxicity against yeast cells assessed as growth inhibition after 44 hrs by turbidometric assay; assay type: toxicity, cell-based; conditions: Saccharomyces cerevisiae
[5] = Cytotoxicity against MDCK cells assessed as reduction in cell viability at 100 uM; assay type: toxicity, cell-based, Canis lupus familiaris; conditions: dog
[6] = Antiviral activity against Influenza A virus A/Puerto Rico/8/34 expressing wild type M2 proton channel infected in MDCK cells assessed as inhibition of viral replication measured after 10 hrs by miniplaque assay; assay type: functional, cell-based, Influenza A virus (A/Puerto Rico/8/1934(H1N1))
[7] = Cytotoxicity against MDCK cells at 3 uM measured after 72 hrs by MTT assay; assay type: toxicity, cell-based, Canis lupus familiaris; conditions: dog
[8] = tested on: MDCK; test: Antiviral activity against amantadine-sensitive Influenza A virus A/Hong Kong/1/68(H3N2) infected in MDCK cells assessed as protection from virus-induced cell death at 1 uM measured after 72 hrs by MTT assay; assay type: functional, cell-based; conditions: Influenza A virus (A/Hong Kong/1/1968(H3N2))
[9] = Antiviral activity against Influenza A virus A/Puerto Rico/8/34 expressing wild type M2 proton channel infected in MDCK cells assessed as inhibition of viral replication at >= 0.8 uM measured after 10 hrs by miniplaque assay; assay type: functional, Influenza A virus (A/Puerto Rico/8/1934(H1N1))

Compound	Activity [1]	EC50 [2] [µM]	IC50 at 44 h [4] [µM]	other results
CC1(C)N=C(NCCn2ccnc2)S[C@]12CC[C@@H](C)CC2	Non-Toxic	> 100		
CC1(C)N=C(NCCN2CCCC2)S[C@]12CC[C@@H](C)CC2	Non-Toxic	8		
CC1(C)N=C(NCCc2ccccn2)S[C@]12CC[C@@H](C)CC2	Non-Toxic	3		
CC1(C)N=C(NCCN2CCOCC2)S[C@]12CC[C@@H](C)CC2	Non-Toxic	> 100		
CN1CCN(CCNC2=NC(C)(C)[C@]3(CC[C@H](C)CC3)S2)CC1	Non-Toxic	3		inhibition [3]: Active
COc1ccc(CNC2=NC(C)(C)[C@]3(CC[C@H](C)CC3)S2)cc1F			100	
CC1(C)N=C(NCC2CCNCC2)S[C@]12CC[C@@H](C)CC2	Non-Toxic	> 100		
CC1(C)N=C(NCc2cccc(F)c2)S[C@]12CC[C@@H](C)CC2			10	
CC1(C)N=C(NCc2cccnc2)S[C@]12CC[C@@H](C)CC2	Non-Toxic	5		
CC(C)N1CCN(CCNC2=NC(C)(C)[C@]3(CC[C@H](C)CC3)S2)CC1	Non-Toxic	30		
CC1(C)N=C(NCc2ccc(C#N)cc2)S[C@]12CC[C@@H](C)CC2			100	
CC1(C)N=C(NCc2ccco2)S[C@]12CC[C@@H](C)CC2			> 30	
CC1(C)N=C(NCCc2ccncc2)S[C@]12CC[C@@H](C)CC2	Non-Toxic	> 100		
CN(C)CCN1CCN(CCNC2=NC(C)(C)[C@]3(CC[C@H](C)CC3)S2)CC1	Non-Toxic	70		inhibition [3]: Active
CCCCN1CCN(CCNC2=NC(C)(C)[C@]3(CC[C@H](C)CC3)S2)CC1	Non-Toxic	3		inhibition [3]: Active; Activity [5]: Toxic
CC1(C)N=C(NCCN2CCNCC2)S[C@]12CC[C@@H](C)CC2	Non-Toxic	2.6		
CC1(C)N=C(NCc2ccccc2F)S[C@]12CC[C@@H](C)CC2			10	
CC1(C)N=C(NCCN2CCN(S(=O)(=O)c3ccccc3)CC2)S[C@]12CC[C@@H](C)CC2	Non-Toxic	18		
CC1(C)N=C(NCCN2CCN(Cc3ccccc3)CC2)S[C@]12CC[C@@H](C)CC2		0.6	> 30	inhibition [3]: Active; Activity [5]: Toxic
CC1(C)N=C(NCc2cc(-c3ccccc3)on2)S[C@]12CC[C@@H](C)CC2			10	
CC1(C)N=C(NCc2cccs2)S[C@]12CC[C@@H](C)CC2			30	
CC1(C)N=C(NCc2ccc3cc[nH]c3c2)S[C@]12CC[C@@H](C)CC2			> 30	
Cc1cnc(CN2CCN(CCNC3=NC(C)(C)[C@]4(CC[C@H](C)CC4)S3)CC2)cn1		20	100	

Compound	Activity [1]	EC50 [2] [µM]	IC50 at 44 h [4] [µM]	other results
CC1(C)N=C(NCCN2CCCCC2)S[C@]12CC[C@@H](C)CC2	Non-Toxic	> 100		
CC1(C)N=C(N2CCNCC2)S[C@]12CC[C@@H](C)CC2	Non-Toxic	> 100		
CC(C)(C)OC(=O)N1CCN(CCNC2=NC(C)(C)[C@]3(CC[C@H](C)CC3)S2)CC1			> 30	
CCCCCCCCN1CCN(CCNC2=NC(C)(C)[C@]3(CC[C@H](C)CC3)S2)CC1	Non-Toxic	10		inhibition [3]: Active
CC1(C)N=C(NCc2ccc(O)c(F)c2)S[C@]12CC[C@@H](C)CC2		10	> 30	
COc1ccc(CNC2=NC(C)(C)[C@]3(CC[C@H](C)CC3)S2)cc1Cl			> 30	
CC1(C)N=C(N)S[C@]12CC[C@@H](C)CC2	Non-Toxic	0.03		EC50 [6]: 0.02 µM; Activity [7]: Non-Toxic; Activity [8]: Active
CC1(C)N=C(NCc2ccc3c(c2)OCO3)S[C@]12CC[C@@H](C)CC2			> 30	
CC1(C)N=C(NCCN2CCN(S(C)(=O)=O)CC2)S[C@]12CC[C@@H](C)CC2	Non-Toxic			
COc1cc(F)ccc1CNC1=NC(C)(C)[C@]2(CC[C@H](C)CC2)S1			> 30	
CC1(C)N=C(NCCNc2ccccc2)S[C@]12CC[C@@H](C)CC2			10	
CC1(C)N=C(NCCNCc2ccccc2)S[C@]12CC[C@@H](C)CC2			100	
COc1ccc(C(=O)NC2=NC(C)(C)[C@]3(CC[C@H](C)CC3)S2)cc1			10	
COc1ccc(CNC2=NC(C)(C)[C@]3(CC[C@H](C)CC3)S2)c(OC)c1		> 30	100	
CC1(C)N=C(NS(=O)(=O)c2ccccc2)S[C@]12CC[C@@H](C)CC2			30	
CC1(C)N=C(NCc2ccccn2)S[C@]12CC[C@@H](C)CC2	Non-Toxic	10		
CCOCCN1CCN(CCNC2=NC(C)(C)[C@]3(CC[C@H](C)CC3)S2)CC1	Non-Toxic	2.1		inhibition [3]: Active
CC(C)CCN1CCN(CCNC2=NC(C)(C)[C@]3(CC[C@H](C)CC3)S2)CC1	Non-Toxic	10		inhibition [3]: Active; Activity [5]: Toxic
CC1(C)N=C(NCCn2cccc2)S[C@]12CC[C@@H](C)CC2			100	
CC1(C)N=C(NCc2ccccc2O)S[C@]12CC[C@@H](C)CC2		10	100	
COc1ccc(C(=O)NC2=NC(C)(C)[C@]3(CC[C@H](C)CC3)S2)c(OC)c1			3	
CC1(C)N=C(NCCN2CCN(CC3CCCCC3)CC2)S[C@]12CC[C@@H](C)CC2	Non-Toxic	20		
CC1(C)N=C(NCc2ccncc2)S[C@]12CC[C@@H](C)CC2	Non-Toxic	2		

Compound	Activity [1]	EC50 [2] [µM]	IC50 at 44 h [4] [µM]	other results
CCN1CCN(CCNC2=NC(C)(C)[C@]3(CC[C@H](C)CC3)S2)CC1		> 30	100	
CC1(C)N=C(NCc2ccccc2)S[C@]12CC[C@@H](C)CC2			10	
CN1CCC(CNC2=NC(C)(C)[C@]3(CC[C@H](C)CC3)S2)CC1	Non-Toxic	10		
CC1(C)N=C(NCc2cccc(O)c2)S[C@]12CC[C@@H](C)CC2	Non-Toxic	> 40		
Cc1cccnc1NCCNC1=NC(C)(C)[C@]2(CC[C@H](C)CC2)S1			100	
CC1(C)N=C(NCCc2cccnc2)S[C@]12CC[C@@H](C)CC2	Non-Toxic	0.9		
COc1cccc(CNC2=NC(C)(C)[C@]3(CC[C@H](C)CC3)S2)c1			30	
COc1ccc(CNC2=NC(C)(C)[C@]3(CC[C@H](C)CC3)S2)cc1OC	Non-Toxic			
COCCNC1=NC(C)(C)[C@]2(CC[C@H](C)CC2)S1	Non-Toxic			
NC12CC3CC(CC(C3)C1)C2 [AMANTADINE]		0.1		inhibition (INH) [9]: >90%; EC50 [6]: 0.04 µM; Activity [7]: Non-Toxic; Activity [8]: Active
CC(=O)N1CCN(CCNC2=NC(C)(C)[C@]3(CC[C@H](C)CC3)S2)CC1	Non-Toxic	26		
CC1(C)N=C(N2CCOCC2)S[C@]12CC[C@@H](C)CC2	Non-Toxic	0.7		
CC1(C)N=C(NCCN2CCN(CCO)CC2)S[C@]12CC[C@@H](C)CC2	Non-Toxic	50		
CN1CCN(C2=NC(C)(C)[C@]3(CC[C@H](C)CC3)S2)CC1	Non-Toxic	> 100		
CC1(C)N=C(NCc2ccc(F)cc2)S[C@]12CC[C@@H](C)CC2			30	
CC1(C)N=C(N2CCCCC2)S[C@]12CC[C@@H](C)CC2	Non-Toxic	10		
CCCCOc1ccc(CN2CCN(CCNC3=NC(C)(C)[C@]4(CC[C@H](C)CC4)S3)CC2)cc1			3	
COc1ccccc1CNC1=NC(C)(C)[C@]2(CC[C@H](C)CC2)S1			10	
CN(C)CCNC1=NC(C)(C)[C@]2(CC[C@H](C)CC2)S1	Non-Toxic	100		
CC1(C)N=C(NC(=O)c2ccccc2)S[C@]12CC[C@@H](C)CC2			10	
COc1ccc(CNC2=NC(C)(C)[C@]3(CC[C@H](C)CC3)S2)cc1			30	
